Species: Rattus norvegicus
Test: Open TG-GATES - Regimen: Daily Repeat
Type: toxicity, organism-based, Sprague-Dawley
Design: regimen Daily Repeat, gender Male, age 6 weeks
Conditions: in vivo, po, 0 mg/kg, […], route gavage, dose level Control; for KIDNEY_L / KIDNEY_R / KIDNEY_TOTAL: tissue Kidney; for LIVER: tissue Liver; for A/G / ALP / ALT / AST / BUN / CRE / Ca / Cl / DBIL / GLC / IP / K / LDH / Na / PL / RALB / TBIL / TC / TG / TP / gamma-GTP: tissue Plasma

Question: For CNC(=C[N+](=O)[O-])NCCSCc1ccc(CN(C)C)o1 [RANITIDINE], which Lym (tissue Blood, time 28 day) is on record?
Answer: The Lym was 77.8%.

Question: And the MCH (tissue Blood, time 28 day)?
Answer: The MCH was 20 pg.

Question: What about the MCHC (tissue Blood, time 28 day) of the same compound?
Answer: Its MCHC is 35.7%.

Question: What about the MCV (tissue Blood, time 28 day) of the same compound?
Answer: The MCV was 56.2 fL.

Question: What about the Mono (tissue Blood, time 28 day) of the same compound?
Answer: Its Mono is 2.6%.

Question: What about the Neu (tissue Blood, time 28 day) of the same compound?
Answer: Its Neu is 16.8%.

Question: What about the PT (tissue Blood, time 28 day) of the same compound?
Answer: The PT was 12.4 s.

Question: What about the Plat (tissue Blood, time 28 day) of the same compound?
Answer: Its Plat is 106.3 x10_4/uL.

Question: And the RBC (tissue Blood, time 28 day)?
Answer: Its RBC is 779.2 x10_4/ul.

Question: And the Ret (tissue Blood, time 28 day)?
Answer: The Ret was 2%.

Question: What about the WBC (tissue Blood, time 28 day) of the same compound?
Answer: The WBC was 91.9 x10_2/uL.

Question: And the KIDNEY_L (time 7 day)?
Answer: Its KIDNEY_L is 1.1 g.

Question: And the KIDNEY_R (time 7 day)?
Answer: The KIDNEY_R was 1.1 g.

Question: And the KIDNEY_TOTAL (time 7 day)?
Answer: Its KIDNEY_TOTAL is 2.2 g.

Question: What about the KIDNEY_L (time 14 day) of the same compound?
Answer: Its KIDNEY_L is 1.2 g.

Question: What about the KIDNEY_R (time 14 day) of the same compound?
Answer: The KIDNEY_R was 1.2 g.

Question: And the KIDNEY_TOTAL (time 14 day)?
Answer: Its KIDNEY_TOTAL is 2.4 g.

Question: What about the KIDNEY_L (time 28 day) of the same compound?
Answer: The KIDNEY_L was 1.5 g.

Question: What about the KIDNEY_R (time 28 day) of the same compound?
Answer: The KIDNEY_R was 1.4 g.

Question: What about the KIDNEY_TOTAL (time 28 day) of the same compound?
Answer: The KIDNEY_TOTAL was 2.9 g.

Question: And the LIVER (time 7 day)?
Answer: Its LIVER is 12.5 g.

Question: What about the LIVER (time 14 day) of the same compound?
Answer: The LIVER was 13.5 g.

Question: What about the LIVER (time 28 day) of the same compound?
Answer: The LIVER was 15.9 g.

Question: What about the A/G (time 7 day) of the same compound?
Answer: The A/G was 1.5.

Question: What about the ALP (time 7 day) of the same compound?
Answer: The ALP was 967.8 IU/L.

Question: And the ALT (time 7 day)?
Answer: The ALT was 31.6 IU/L.

Question: What about the AST (time 7 day) of the same compound?
Answer: The AST was 63.8 IU/L.

Question: What about the BUN (time 7 day) of the same compound?
Answer: The BUN was 15.4 mg/dL.

Question: What about the CRE (time 7 day) of the same compound?
Answer: Its CRE is 0.4 mg/dL.

Question: And the Ca (time 7 day)?
Answer: Its Ca is 10.6 mg/dL.

Question: And the Cl (time 7 day)?
Answer: Its Cl is 103.8 meq/L.

Question: And the DBIL (time 7 day)?
Answer: Its DBIL is 0.096 mg/dL.

Question: And the GLC (time 7 day)?
Answer: Its GLC is 219.2 mg/dL.

Question: What about the IP (time 7 day) of the same compound?
Answer: The IP was 7.4 mg/dL.

Question: What about the K (time 7 day) of the same compound?
Answer: Its K is 3.8 meq/L.

Question: And the LDH (time 7 day)?
Answer: Its LDH is 164.8 IU/L.

Question: What about the Na (time 7 day) of the same compound?
Answer: Its Na is 140.8 meq/L.

Question: What about the PL (time 7 day) of the same compound?
Answer: The PL was 147.4 mg/dL.

Question: What about the RALB (time 7 day) of the same compound?
Answer: Its RALB is 3.4 g/dL.

Question: And the TBIL (time 7 day)?
Answer: Its TBIL is 0.1 mg/dL.

Question: And the TC (time 7 day)?
Answer: The TC was 73.2 mg/dL.

Question: And the TG (time 7 day)?
Answer: Its TG is 103.6 mg/dL.

Question: And the TP (time 7 day)?
Answer: Its TP is 5.7 g/dL.

Question: And the gamma-GTP (time 7 day)?
Answer: Its gamma-GTP is 1 IU/L.

Question: What about the A/G (time 14 day) of the same compound?
Answer: The A/G was 1.4.

Question: And the ALP (time 14 day)?
Answer: The ALP was 885.8 IU/L.

Question: And the ALT (time 14 day)?
Answer: Its ALT is 38.2 IU/L.

Question: What about the AST (time 14 day) of the same compound?
Answer: Its AST is 64.2 IU/L.

Question: What about the BUN (time 14 day) of the same compound?
Answer: Its BUN is 16.2 mg/dL.

Question: And the CRE (time 14 day)?
Answer: Its CRE is 0.5 mg/dL.

Question: What about the Ca (time 14 day) of the same compound?
Answer: Its Ca is 10.6 mg/dL.

Question: And the Cl (time 14 day)?
Answer: The Cl was 103 meq/L.

Question: And the DBIL (time 14 day)?
Answer: The DBIL was 0.088 mg/dL.

Question: And the GLC (time 14 day)?
Answer: Its GLC is 205.2 mg/dL.

Question: What about the IP (time 14 day) of the same compound?
Answer: Its IP is 7.2 mg/dL.

Question: What about the K (time 14 day) of the same compound?
Answer: Its K is 3.9 meq/L.

Question: And the LDH (time 14 day)?
Answer: Its LDH is 177 IU/L.

Question: What about the Na (time 14 day) of the same compound?
Answer: Its Na is 141.2 meq/L.

Question: And the PL (time 14 day)?
Answer: Its PL is 140.8 mg/dL.

Question: And the RALB (time 14 day)?
Answer: The RALB was 3.5 g/dL.

Question: What about the TBIL (time 14 day) of the same compound?
Answer: The TBIL was 0.2 mg/dL.

Question: And the TC (time 14 day)?
Answer: Its TC is 67.2 mg/dL.

Question: What about the TG (time 14 day) of the same compound?
Answer: The TG was 124.8 mg/dL.

Question: What about the TP (time 14 day) of the same compound?
Answer: The TP was 6 g/dL.

Question: What about the gamma-GTP (time 14 day) of the same compound?
Answer: The gamma-GTP was 1 IU/L.

Question: And the A/G (time 28 day)?
Answer: The A/G was 1.3.

Question: What about the ALP (time 28 day) of the same compound?
Answer: The ALP was 677.6 IU/L.

Question: What about the ALT (time 28 day) of the same compound?
Answer: Its ALT is 31.6 IU/L.

Question: What about the AST (time 28 day) of the same compound?
Answer: Its AST is 61.4 IU/L.

Question: What about the BUN (time 28 day) of the same compound?
Answer: The BUN was 17.2 mg/dL.

Question: And the CRE (time 28 day)?
Answer: Its CRE is 0.5 mg/dL.

Question: And the Ca (time 28 day)?
Answer: The Ca was 10.4 mg/dL.

Question: And the Cl (time 28 day)?
Answer: Its Cl is 103 meq/L.

Question: What about the DBIL (time 28 day) of the same compound?
Answer: The DBIL was 0.092 mg/dL.

Question: And the GLC (time 28 day)?
Answer: Its GLC is 214.6 mg/dL.

Question: What about the IP (time 28 day) of the same compound?
Answer: Its IP is 6.6 mg/dL.

Question: And the K (time 28 day)?
Answer: Its K is 3.9 meq/L.

Question: What about the LDH (time 28 day) of the same compound?
Answer: The LDH was 126.8 IU/L.

Question: What about the Na (time 28 day) of the same compound?
Answer: The Na was 140.8 meq/L.

Question: What about the PL (time 28 day) of the same compound?
Answer: The PL was 132.8 mg/dL.

Question: And the RALB (time 28 day)?
Answer: The RALB was 3.4 g/dL.

Question: And the TBIL (time 28 day)?
Answer: The TBIL was 0.1 mg/dL.

Question: What about the TC (time 28 day) of the same compound?
Answer: Its TC is 64.2 mg/dL.

Question: What about the TG (time 28 day) of the same compound?
Answer: Its TG is 85.8 mg/dL.

Question: What about the TP (time 28 day) of the same compound?
Answer: The TP was 6.2 g/dL.

Question: What about the gamma-GTP (time 28 day) of the same compound?
Answer: Its gamma-GTP is 0.8 IU/L.

Source: ChEMBL document CHEMBL3885861, “Open TG-GATES”
